Cytotoxicity data for 100 compounds are collected here from ChEMBL document CHEMBL3507680, “University of Dundee, Gates Library screen for HepG2 cell viability”.

The nature of the data set: Human HepG2 cell viability assay in 384 well format. It is filed as toxicity, cell-based. Also on record: dose 125 nL, time 70.5 hour; cytotoxicity at 70.5 h: concentration not given beside the values. Conditions: HepG2 cells, read-out: Inhibition.
Take `COC(=O)c1cc(NCC(=O)NC(N)=O)cc(C(F)(F)F)c1`: the cytotoxicity at 70.5 h stood at 0.625%.
The figure for `CN(C)C(=O)Cc1ccc(-c2cccc3c2CCNC3)cc1` is -21.8%.
Consider `CC(=O)c1cc(C(=O)N2CCN(C)Cc3ccccc32)n(C)c1`, for which the cytotoxicity at 70.5 h is -3%.
The figure for `Cc1csc(N2CCCN(C(=O)c3ccoc3C)CC2)n1` is -4.74%.
Regarding `COc1ccc(CNCC(C)Oc2ccccn2)cc1` (stereo not given), the cytotoxicity at 70.5 h was -18.6%.
On to `CCC(=O)c1ccc(OCC(=O)NC(C)c2nnc(C)[nH]2)cc1` (stereo not given), for which the cytotoxicity at 70.5 h was -3.79%.
As for `Cc1cnc2[nH]c(C(F)(F)F)c(CN3CCCC(CO)C3)c2c1` (stereo not given), the cytotoxicity at 70.5 h was 3.56%.
`CC1CCCN(C(=O)c2cn(-c3ccc(C(F)(F)F)cn3)nn2)C1` (stereo not given): the cytotoxicity at 70.5 h was 12.2%.
Turning to `COCCN1C[C@@H](C)[C@@]2(COCCN(C(=O)Cc3ccccc3)C2)C1`, the cytotoxicity at 70.5 h was -23%.
The figure for `CC(C)(O)CCc1cccc(C(=O)N[C@@H](CO)C(N)=O)c1` is 3.89%.
The figure for `O=C(c1ccnnc1)N1CCC2(CC1)CCN(C(=O)c1cccnc1)C2` is -0.196%; for `CCN1CCN(C(=O)c2cnc(Cc3c(Cl)cccc3Cl)nc2O)CC1` it is -4.18%.
The figure for `CN1CCCCC1c1nc(Cc2cccc(F)c2)no1` (stereo not given) is -7.67%; for `NC(=O)c1ccc(N2CCCCC2)c(NC(=O)c2ccc(Br)cc2)c1` it is -4.44%.
Regarding `Cc1c(Cl)cccc1NC(=O)CN(Cc1cccnc1)C(C)C`, the cytotoxicity at 70.5 h was determined as 1.97%.
The figure for `CCn1c(-c2ccccc2)nn(CC(=O)NCCc2ccc(C)s2)c1=O` is 13.9%; for `CNC(=O)c1cccc(CC2COCCN(Cc3ccc(C)o3)C2)n1` (stereo not given) it is -2.79%; for `COc1ccc(-n2ncc(C(C)NCc3cnc(SC)nc3)c2C)cc1` (stereo not given) it is -3.63%.
Regarding `COCCN(C)C(=O)c1nc2c(s1)CCCN2C(=O)C1CC1`, the cytotoxicity at 70.5 h was -3.1%.
On to `Cn1cc(CCNCC2CNc3ccnn3C2)cn1` (stereo not given), for which the cytotoxicity at 70.5 h came to 1.67%.
For `Cc1nn(C)c(N(C)C)c1CNC(C)Cc1c(F)cccc1F` (stereo not given), the cytotoxicity at 70.5 h was -16.6%.
As to `Cc1cc(C)nc(NCc2nnc3n2CCCCC3)n1`, the cytotoxicity at 70.5 h was 13.9%.
On to `COc1cccc(CCC(=O)N2CCCCC2Cn2cccn2)c1` (stereo not given), for which the cytotoxicity at 70.5 h was -11.2%.
Turning to `COCCn1ccnc1C1CCCN(C(=O)CSCC2CC2)C1` (stereo not given), the cytotoxicity at 70.5 h is -3.02%.
The figure for `O=C(c1cscn1)N1CC[C@H]2C[C@@H](c3ccncn3)O[C@@H]2C1` is 7.77%.
Turning to `CC(C)C(=O)Nc1ccc(Sc2nncn2C)c(Cl)c1`, the cytotoxicity at 70.5 h is -16%.
`Cc1cs/c(=N\C(=O)Cn2nc(N3CCOCC3)ccc2=O)[nH]1`: the cytotoxicity at 70.5 h is -13.8%.
Turning to `CC(C)Cc1noc(CN(C)c2cc(N(C)C)ncn2)n1`, the cytotoxicity at 70.5 h was -7.9%.
The figure for `CC(C)(C)NC(=O)CCOc1cccc(F)c1` is -5.57%; for `CN(C)c1cc(CNCc2ccc(N3CCOCC3)cc2)ccn1` it is -6.16%.
In the case of `O=S1(=O)COCCN1Cc1ccc(Cl)c(F)c1` it was -6.23%.
Take `Cc1cc(C)n(-c2cncc(NCCNS(C)(=O)=O)n2)n1`: the cytotoxicity at 70.5 h came to 2.9%.
As for `COC(C)(CNS(=O)(=O)c1cnn(C)c1)c1ccccc1F` (stereo not given), the cytotoxicity at 70.5 h is -0.155%.
In the case of `CC(C)n1nc2c(cc1=O)CN(Cc1ccc(-n3cccn3)cc1)CC2`, the cytotoxicity at 70.5 h is 24.1%.
In the case of `COc1ccccc1OCCCc1cccc(C#N)n1` it was -1.85%; in that of `C1CCC(c2nnc3sc(C4CCOC4)nn23)C1` (stereo not given), -13.4%.
The figure for `Cn1cc(CN2CCc3c(CNC(=O)C4CC4)cncc3C2)cn1` is -1.11%; for `CC(C)(C)c1cc(NC(=O)CN2CCCC(Cn3cncn3)C2)on1` (stereo not given) it is 25.7%.
In the case of `Cc1ccc(NC(=O)Cn2ccc3c(=O)n(C)ccc32)cc1F` it was -5.99%; in that of `CCCc1cc(=O)[nH]c2nnc(SCC(=O)NCc3ccc(C)cc3)n12`, -6.16%; in that of `CC(=O)N1CCN(C(=O)c2cc(-n3cnnn3)ccc2Cl)CC1`, 24.6%.
With `Cc1nc[nH]c1CN1CCOC(CCNC(=O)c2ccsc2)C1` (stereo not given), the cytotoxicity at 70.5 h worked out at 2.08%.
Turning to `N#CC1(NC(=O)c2c(F)ccc(OC(F)F)c2F)CCOCC1`, the cytotoxicity at 70.5 h was -9.56%.
Consider `O=C(CCc1ccc(Cl)s1)N1CCC(N2CCNC2=O)CC1`, for which the cytotoxicity at 70.5 h was -3.74%.
In the case of `O=C(CNC(=O)c1ccoc1)NCCOc1ccc2c(c1)CCC2` it was -6.52%; in that of `CC(C)c1cc(C(=O)NCC2CCCN(C(C)C)C2)n(C)n1` (stereo not given), -0.374%; in that of `CC(C)CC(=O)N1CC(=O)N(CCc2ccccc2)CC(O)C1` (stereo not given), 24%.
The figure for `CC(=O)N1CCC(NC(=O)c2cc(Cl)ccc2-n2cnnn2)CC1` is -6.61%; for `CC(C)(C)n1ncc2c1CCCC2NCc1cccc2c1OCCO2` (stereo not given) it is -7.2%.
For the compound `CS(=O)(=O)N1CCC(Oc2ccc(C(=O)NCCC(N)=O)cc2Cl)CC1`, the cytotoxicity at 70.5 h stood at 6.15%.
In the case of `Cc1nn(C)c(N2CCOCC2)c1CNC1CCc2ccccc2C1` (stereo not given) it was 16.6%.
For `NC(=O)c1cccc(C2CCN(c3ncccn3)CC2)n1`, the cytotoxicity at 70.5 h is -13.4%.
In the case of `Cc1ccc(NC2CCCN(CCCc3ccccc3)C2)nn1` (stereo not given) it was 30.2%; in that of `CC(=O)N1CCN(CCCOc2ccccc2F)CC(C(N)=O)C1` (stereo not given), -13.8%.
As to `CN(CCC#N)C(=O)CSc1cc(F)ccc1F`, the cytotoxicity at 70.5 h was 5.2%.
In the case of `CCOc1ccnc(N[C@@H](Cc2ccccc2)C(N)=O)n1` it was -6.36%; in that of `O=S(=O)(Cc1ccc(F)cc1)NCc1nnc2n1CCC2`, -24.3%.
In the case of `Cn1nc(COCC2CC2)c2c1CCN(Cc1ccco1)C2` it was -9.54%; in that of `O=C1[C@H]2CN(C3CCOCC3)C[C@H]2CN1Cc1ccncc1`, -8.99%.
As to `CNC(=O)CS(=O)(=O)C1CCN(S(=O)(=O)c2ccccc2Br)CC1`, the cytotoxicity at 70.5 h is -8.95%.
The figure for `Cc1nn(C)c(N2CCOCC2)c1CNC1CCS(=O)(=O)C1` (stereo not given) is -6.08%; for `Cn1c(Cn2ncc(N3CCCCC3)cc2=O)nc2ccccc21` it is 44.3%.
The figure for `Cc1cccnc1CN1CCN(C(=O)CCn2ccccc2=O)CC1` is 0.0273%; for `CCOc1ccnc(N2CCN(C(=O)c3ccoc3)CC2)n1` it is 18.6%.
Consider `Cc1ccc(-c2nc(CN(C)C3CCS(=O)(=O)C3)cs2)o1` (stereo not given), for which the cytotoxicity at 70.5 h is -8.59%.
Take `CC(C)c1nc(C2CCCN2c2ccnc(C3CCCC3)n2)no1` (stereo not given): the cytotoxicity at 70.5 h was -6.75%.
For `c1ccn(Cc2noc3c2CN(Cc2ccsc2)CC3)c1`, the cytotoxicity at 70.5 h is -6.24%.
The figure for `CN(CCO)Cc1nnc(C2CCN(C(=O)C(C)(C)C)CC2)n1C` is -4.92%; for `O=C(CCn1cncn1)N1CCCC(CO)(CCCc2ccccc2)C1` (stereo not given) it is 15.8%.
With `O=C(COCCOc1ccccc1)NC1CCN(c2ccccn2)CC1`, the cytotoxicity at 70.5 h is -12.1%.
`Cc1cc(NC(=O)c2ccc(C)c(F)c2)[nH]n1`: the cytotoxicity at 70.5 h was -1.85%.
Regarding `CCc1[nH]c2c(CNC(=O)C3CCCN(C)C3)cc(C)cc2c1C` (stereo not given), the cytotoxicity at 70.5 h is -4.96%.
As to `CN1CCN(S(=O)(=O)c2cccc(C#N)c2)c2ccc(F)cc21`, the cytotoxicity at 70.5 h was determined as 0.333%.
In the case of `CCC(C)(C)n1nnnc1C(c1cccs1)N1CCc2ccccc2C1` (stereo not given) it was 0.836%; in that of `CC(C)OC[C@H]1CCC[C@]12CN(S(=O)(=O)c1cccs1)CCO2`, -8.77%; in that of `Cc1nccn1C1CCCN(C(=O)c2cccc(-n3cccc3)c2)C1` (stereo not given), 11.6%.
Regarding `O=C1NCCCC[C@@H]1NC(=O)C1(N2CCCCC2)Cc2ccccc2C1`, the cytotoxicity at 70.5 h is -4.27%.
Regarding `CCc1nc(CNCC2(C(N)=O)CCOCC2)cs1`, the cytotoxicity at 70.5 h is -4.76%.
In the case of `Cc1cnn(C2(C(=O)O)CCN(c3ccncc3F)CC2)c1` it was -5.87%; in that of `CCCc1nnc(NCCc2noc(C3CC3)n2)o1`, -9.24%.
In the case of `COc1cc(CN(C)C(=O)NCc2nccs2)ccc1SC` it was -6.87%; in that of `O[C@@H]1CN(CC2=Cc3cc(Cl)ccc3OC2)CC[C@H]1N1CCCCCC1`, -11%; in that of `CSCCC(=O)N1CCCCC1CCn1cccn1` (stereo not given), -6.75%.
In the case of `O=C(Nc1ccc2scnc2c1)N1CCN([C@H]2CCCC[C@@H]2O)CC1`, the cytotoxicity at 70.5 h is -13.6%.
As to `Cc1csc(C2CCCCN2C(=O)CN(C)C2CC2)n1` (stereo not given), the cytotoxicity at 70.5 h was -8.97%.
The figure for `O=C(CCc1nc(-c2ccsc2)no1)NCC1CCN(C2CC2)C1` (stereo not given) is 7.83%.
In the case of `Cc1ccc(N2CCN(C(=O)C(O)c3cccc(Cl)c3)CC2=O)cc1` (stereo not given), the cytotoxicity at 70.5 h is -5.15%.
Take `Cc1ccoc1C(=O)N1CC[C@H]2[C@@H]1CCC(=O)N2c1cccnc1`: the cytotoxicity at 70.5 h was -14.8%.
On to `Cn1c2c(c(=O)n1C)CN(C(=O)c1ccco1)CCC2`, for which the cytotoxicity at 70.5 h turned out to be 12.8%.
In the case of `CC(C#N)CN(C)C(=O)CCNC(=O)OCC(F)(F)F` (stereo not given) it was -0.113%; in that of `Cc1ccc(CS(=O)(=O)CC(=O)NCCCOC(C)C)cc1`, -10.8%; in that of `CCC(CNC(=O)Nc1cnn(CC)c1)N1CCc2ccccc2C1` (stereo not given), -4.26%.
In the case of `Cc1nc(C(=O)N2CCC3(CC2)CC(=O)N(CC2CCCO2)C3)cs1` (stereo not given) it was -9.89%; in that of `CCn1cnnc1CNC(=O)N1CCC(CN2CCOCC2)CC1`, -14.7%; in that of `CC(C)Cc1cc(NC(=O)c2cc(Cl)c[nH]2)n(C)n1`, -8.43%.
In the case of `CC(C)(C)OC(=O)N1CCC(C(=O)NCCNc2ncccn2)CC1` it was -7.43%.
As to `CS(=O)(=O)NCC(=O)N1CCCC1c1noc(C2CC2)n1` (stereo not given), the cytotoxicity at 70.5 h was -2.26%.
Take `CN(C)Cc1nn(C)c2c1CN(S(=O)(=O)c1ccccc1F)C2`: the cytotoxicity at 70.5 h was -0.163%.
The figure for `O=C1CCOCCN1Cc1ccc(Cl)c(Cl)c1` is 33.5%; for `CN(C)C(=O)NC1COC2(CCN(Cc3ccco3)CC2)C1` (stereo not given) it is -12.8%.
